Structures can show the parent of a compound that is named as a salt. Numbered stars: 1 amine (or outer) side, 2 acyl side, 3 side chain; on linkers, the order of the positions; unused ones are H or OH. Bridge positions count the residues as written; N and C are the ends. Square brackets hold non-standard residues; d marks the D form. Side chains are listed from the residue outwards. Peptide text beside a SMILES is read from it. * marks the point of attachment. Trp(1-CH2CO2Me) = COC(=O)Cn1cc(C[C@H](N)C(=O)O)c2ccccc21; Trp(1-CH2COOH) = N[C@@H](Cc1cn(CC(=O)O)c2ccccc12)C(=O)O; NHCH2CH2Ph(3,4-OCH2O) = c1cc2c(cc1CCN*)OCO2; Phe(4-F) = N[C@@H](Cc1ccc(F)cc1)C(=O)O; Octyloxycarbonyl = CCCCCCCCOC(=O)*; Hyp = O=C(O)[C@@H]1C[C@@H](O)CN1; NMeNle = CCCC[C@H](NC)C(=O)O; Decanoyl = CCCCCCCCCC(=O)*; NMeC = CN[C@@H](CS)C(=O)O; Pip = O=C(O)[C@@H]1CCCCN1; NMeA = CN[C@@H](C)C(=O)O; Dab = NCC[C@H](N)C(=O)O; Dap = NC[C@H](N)C(=O)O; NH(heptyl) = CCCCCCCN*; CO = O=C([*:1])[*:2]; Piv = CC(C)(C)C(=O)*; Tfa = O=C(C(F)(F)F)*; X3 = O=C(OCCF)*

The assay has as its target T1, PD-1/PD-L1 (Homo sapiens, UniProt Q9NZQ7).
T1 construct: TVMV protease site linker (C); made in house; host or cells: HEK293T cells
As to the kind of experiment: PD-1/PD-L1 Homogenous Time-Resolved Fluorescence (HTRF) binding assay. As to conditions: PD-L1-His 10 nM final, PD-1-Ig 20 nM final; inhibitors pre-incubated with PD-L1-His for 15 m. The text has this:
The ability of the compounds of formula (I) to bind to PD-L1 was investigated using a PD-1/PD-L1 Homogenous Time-Resolved Fluorescence (HTRF) binding assay.
The interaction of PD-1 and PD-L1 can be assessed using soluble, purified preparations of the extracellular domains of the two proteins. The PD-1 and PD-L1 protein extracellular domains were expressed as fusion proteins with detection tags, for PD-1, the tag was the Fc portion of Immunoglobulin (PD-1-Ig) and for PD-L1 it was the 6 histidine motif (PD-L1-His). All binding studies were performed in an HTRF assay buffer consisting of dPBS supplemented with 0.1% […] bovine serum albumin and 0.05% (v/v) Tween-20. For the h/PD-L1-His binding assay, inhibitors were pre-incubated with PD-L1-His (10 nM final) for 15 m in 4 μl of assay buffer, followed by addition of PD-1-Ig (20 nM final) in 1 μl of assay buffer and further incubation for 15 m. HTRF detection was achieved using europium cryptate-labeled anti-Ig (1 nM final) and allophycocyanin (APC) labeled anti-His (20 nM final). Antibodies were diluted in HTRF detection buffer and 5 μl was dispensed on top of the binding reaction. The reaction mixture was allowed to equilibrate for 30 minutes and the resulting signal (665 nm/620 nm ratio) was obtained using an EnVision fluorometer. Additional binding assays were established between the human proteins PD-1-Ig/PD-L2-His (20 & 5 nM, respectively) and CD80-His/PD-L1-Ig (100 & 10 nM, respectively).
Recombinant Proteins: Human PD-1 (25-167) with a C-terminal human Fc domain of immunoglobulin G (Ig) epitope tag [hPD-1 (25-167)-3S-IG] and human PD-L1 (18-239) with a C-terminal His epitope tag [hPD-L1(18-239)-TVMV-His] were expressed in HEK293T cells and purified sequentially by Protein A affinity chromatography and size exclusion chromatography. Human PD-L2-His and CD80-His was obtained through commercial sources.
Table 3 lists the IC50 values for representative examples of this disclosure measured in the PD-1/PD-L1 Homogenous Time-Resolved Fluorescence (HTRF) binding assay.
`CCCCCCCCOC(=O)NCC[C@@H]1NC(=O)[C@H](Cc2c[nH]c3ccccc23)NC(=O)[C@@H]2C[C@@H](O)CN2C(=O)[C@H](CC(C)C)NC(=O)[C@H](CNC(=O)OCCCCCCCC)NC(=O)[C@@H]2CCCN2C(=O)[C@H](CC(N)=O)NC(=O)[C@H](C)N(C)C(=O)[C@H](Cc2ccc(O)cc2)NC(=O)CSC[C@@H](C(=O)NCC(N)=O)NC(=O)[C@H](CC(C)C)NC(=O)[C@H](CCCC)N(C)C(=O)[C@H](CCCC)N(C)C(=O)[C@H](Cc2cn(CC(=O)OC)c3ccccc23)NC1=O` [Example 1013] ({CH2CO}-Y[NMeA]NP[Dap](Octyloxycarbonyl)L[Hyp]W[Dab](Octyloxycarbonyl)[Trp(1-CH2CO2Me)][NMeNle][NMeNle]LCG-NH2; thioether N-14) gave an IC50 of 1100 nM.
Take `CCCC[C@H]1C(=O)N(C)[C@@H](CCCC)C(=O)N[C@@H](CC(C)C)C(=O)N(C)[C@H](C(N)=O)CSCC(=O)N[C@@H](Cc2ccc(F)cc2)C(=O)N2CCCC[C@H]2C(=O)N[C@@H](CC(=O)N(C)C)C(=O)N2CCC[C@H]2C(=O)N[C@@H](CNC(=O)C(C)(C)C)C(=O)N[C@@H](CC(C)C)C(=O)N2C[C@H](O)C[C@H]2C(=O)N[C@@H](Cc2c[nH]c3ccccc23)C(=O)N[C@@H](CO)C(=O)N[C@@H](Cc2cn(CC(=O)O)c3ccccc23)C(=O)N1C` [Example 20310] ({CH2CO}-[Phe(4-F)][Pip]D(NMe2)P[Dap](Piv)L[Hyp]WS[Trp(1-CH2COOH)][NMeNle][NMeNle]L[NMeC]-NH2; thioether N-14): the IC50 is 18 nM.
For `CCCCCCCNC(=O)NCC[C@@H]1NC(=O)[C@H](Cc2c[nH]c3ccccc23)NC(=O)[C@@H]2C[C@@H](O)CN2C(=O)[C@H](CC(C)C)NC(=O)[C@H](CNC(=O)NCCCCCCC)NC(=O)[C@@H]2CCCN2C(=O)[C@H](CC(N)=O)NC(=O)[C@H](C)N(C)C(=O)[C@H](Cc2ccc(O)cc2)NC(=O)CSC[C@@H](C(=O)NCC(N)=O)NC(=O)[C@H](CC(C)C)NC(=O)[C@H](CCCC)N(C)C(=O)[C@H](CCCC)N(C)C(=O)[C@H](Cc2cn(CC(=O)OC)c3ccccc23)NC1=O` [Example 2003] ({CH2CO}-Y[NMeA]NP[Dap]([CO-NH(heptyl)])L[Hyp]W[Dab]([CO-NH(heptyl)])[Trp(1-CH2CO2Me)][NMeNle][NMeNle]LCG-NH2; thioether N-14) the value was 24 nM; for `CCCC[C@H]1C(=O)N(C)[C@@H](CCCC)C(=O)N[C@@H](CC(C)C)C(=O)N[C@H](C(=O)NCC(N)=O)CSCC(=O)N[C@@H](Cc2ccc(O)cc2)C(=O)N(C)[C@@H](C)C(=O)N[C@@H](CC(N)=O)C(=O)N2CCC[C@H]2C(=O)N[C@@H](CNC(=O)NCCc2ccc3c(c2)OCO3)C(=O)N[C@@H](CC(C)C)C(=O)N2C[C@H](O)C[C@H]2C(=O)N[C@@H](Cc2c[nH]c3ccccc23)C(=O)N[C@@H](CCN)C(=O)N[C@@H](Cc2cn(CC(=O)O)c3ccccc23)C(=O)N1C` [Example 1039] ({CH2CO}-Y[NMeA]NP[Dap]([CO-NHCH2CH2Ph(3,4-OCH2O)])L[Hyp]W[Dab][Trp(1-CH2COOH)][NMeNle][NMeNle]LCG-NH2; thioether N-14), 1.5 nM; for `CCCC[C@H]1C(=O)N(C)[C@@H](CCCC)C(=O)N[C@@H](CC(C)C)C(=O)N[C@H](C(=O)NCC(N)=O)CSCC(=O)N[C@@H](Cc2ccc(O)cc2)C(=O)N(C)[C@@H](C)C(=O)N[C@@H](CC(N)=O)C(=O)N2CCC[C@H]2C(=O)N[C@@H](CNC(=O)C(F)(F)F)C(=O)N[C@@H](CC(C)C)C(=O)N2C[C@H](O)C[C@H]2C(=O)N[C@@H](Cc2c[nH]c3ccccc23)C(=O)N[C@@H](CCNC(=O)C(F)(F)F)C(=O)N[C@@H](Cc2cn(CC(=O)O)c3ccccc23)C(=O)N1C` [Example 1007] ({CH2CO}-Y[NMeA]NP[Dap](Tfa)L[Hyp]W[Dab](Tfa)[Trp(1-CH2COOH)][NMeNle][NMeNle]LCG-NH2; thioether N-14), 3.3 nM.
For `CCCC[C@H]1C(=O)N(C)[C@@H](CCCC)C(=O)N[C@@H](CC(C)C)C(=O)N(C)[C@H](C(N)=O)CSCC(=O)N[C@@H](Cc2ccc(F)cc2)C(=O)N2CCCC[C@H]2C(=O)N[C@@H](CC(=O)O)C(=O)N2CCC[C@H]2C(=O)N[C@@H](Cc2c[nH]cn2)C(=O)N[C@@H](CC(C)C)C(=O)N2C[C@H](O)C[C@H]2C(=O)N[C@@H](Cc2c[nH]c3ccccc23)C(=O)N[C@@H](CO)C(=O)N[C@@H](Cc2cn(CC(=O)O)c3ccccc23)C(=O)N1C` [Example 10004] ({CH2CO}-[Phe(4-F)][Pip]DPHL[Hyp]WS[Trp(1-CH2COOH)][NMeNle][NMeNle]L[NMeC]-NH2; thioether N-14), the IC50 was determined as 11 nM. This IC50 lies about 3.3-fold higher than the previous one.
For `CCCC[C@H]1C(=O)N(C)[C@@H](CCCC)C(=O)N[C@@H](CC(C)C)C(=O)N[C@H](C(=O)NCC(N)=O)CSCC(=O)N[C@@H](Cc2ccc(O)cc2)C(=O)N(C)[C@@H](C)C(=O)N[C@@H](CC(N)=O)C(=O)N2CCC[C@H]2C(=O)N[C@@H](CNC(=O)OCCF)C(=O)N[C@@H](CC(C)C)C(=O)N2C[C@H](O)C[C@H]2C(=O)N[C@@H](Cc2c[nH]c3ccccc23)C(=O)N[C@@H](CCNC(=O)OCCF)C(=O)N[C@@H](Cc2cn(CC(=O)OC)c3ccccc23)C(=O)N1C` [Example 1012] ({CH2CO}-Y[NMeA]NP[Dap](X3)L[Hyp]W[Dab](X3)[Trp(1-CH2CO2Me)][NMeNle][NMeNle]LCG-NH2; thioether N-14) the value was 19 nM; for `CCCC[C@H]1C(=O)N(C)[C@@H](CCCC)C(=O)N[C@@H](CCC(=O)O)C(=O)N[C@H](C(N)=O)CSCC(=O)N[C@@H](Cc2ccc(F)cc2)C(=O)N2CCCC[C@H]2C(=O)N[C@@H](CC(N)=O)C(=O)N2CCC[C@H]2C(=O)N[C@@H](CNC(=O)C(C)(C)C)C(=O)N[C@@H](CC(C)C)C(=O)N2C[C@H](O)C[C@H]2C(=O)N[C@@H](Cc2c[nH]c3ccccc23)C(=O)N[C@@H](CCNC(=O)C(C)(C)C)C(=O)N[C@@H](Cc2cn(CC(=O)O)c3ccccc23)C(=O)N1C` [Example 20030] ({CH2CO}-[Phe(4-F)][Pip]NP[Dap](Piv)L[Hyp]W[Dab](Piv)[Trp(1-CH2COOH)][NMeNle][NMeNle]EC-NH2; thioether N-14), 7.8 nM.
`CCCC[C@H]1C(=O)N(C)[C@@H](CCCC)C(=O)N[C@@H](CC(C)C)C(=O)N[C@H](C(N)=O)CSCC(=O)N[C@@H](Cc2ccc(F)cc2)C(=O)N2CCCC[C@H]2C(=O)N[C@@H](CC(=O)O)C(=O)N2CCC[C@H]2C(=O)N[C@@H](CNC(=O)C(C)(C)C)C(=O)N[C@@H](CCCCN)C(=O)N2C[C@H](O)C[C@H]2C(=O)N[C@@H](Cc2c[nH]c3ccccc23)C(=O)N[C@@H](CCNC(=O)C(C)(C)C)C(=O)N[C@@H](Cc2cn(CC(=O)O)c3ccccc23)C(=O)N1C` [Example 20090] ({CH2CO}-[Phe(4-F)][Pip]DP[Dap](Piv)K[Hyp]W[Dab](Piv)[Trp(1-CH2COOH)][NMeNle][NMeNle]LC-NH2; thioether N-14) registered an IC50 of 11.1 nM. The IC50 values of the last two molecules are within 1.5-fold of each other.
The molecule `CCCCCCCCCC(=O)NCC[C@@H]1NC(=O)[C@H](Cc2c[nH]c3ccccc23)NC(=O)[C@@H]2C[C@@H](O)CN2C(=O)[C@H](CC(C)C)NC(=O)[C@H](CNC(=O)CCCCCCCCC)NC(=O)[C@@H]2CCCN2C(=O)[C@H](CC(N)=O)NC(=O)[C@H](C)N(C)C(=O)[C@H](Cc2ccc(O)cc2)NC(=O)CSC[C@@H](C(=O)NCC(N)=O)NC(=O)[C@H](CC(C)C)NC(=O)[C@H](CCCC)N(C)C(=O)[C@H](CCCC)N(C)C(=O)[C@H](Cc2cn(CC(=O)OC)c3ccccc23)NC1=O` [Example 1004] ({CH2CO}-Y[NMeA]NP[Dap](Decanoyl)L[Hyp]W[Dab](Decanoyl)[Trp(1-CH2CO2Me)][NMeNle][NMeNle]LCG-NH2; thioether N-14) had an IC50 of more than 10000 nM.

(Values after patent publication US20220251141A1, “IMMUNOMODULATORS” (Bristol-Myers Squibb Company, priority 2019, published 2022).)
